The term IC50 denotes the concentration at which inhibition is half-maximal.

Each structure is given as a SMILES string.

In experiment [1] the test system is acetylcholinesterase. In words: ex vivo inhibition acetylcholinesterase assay (modified Ellman). Type of experiment: in vivo, male Wistar rats.
The target in experiment [2] is T1, acetylcholinesterase (Rattus norvegicus, UniProt P37136).
T1 construct: corpora striata dissected free, weighed and homogenized in 19 volumes; from tissue; host or cells: corpora striata of male Wistar rats, crude homogenate
T1 sequence (P37136 32-614): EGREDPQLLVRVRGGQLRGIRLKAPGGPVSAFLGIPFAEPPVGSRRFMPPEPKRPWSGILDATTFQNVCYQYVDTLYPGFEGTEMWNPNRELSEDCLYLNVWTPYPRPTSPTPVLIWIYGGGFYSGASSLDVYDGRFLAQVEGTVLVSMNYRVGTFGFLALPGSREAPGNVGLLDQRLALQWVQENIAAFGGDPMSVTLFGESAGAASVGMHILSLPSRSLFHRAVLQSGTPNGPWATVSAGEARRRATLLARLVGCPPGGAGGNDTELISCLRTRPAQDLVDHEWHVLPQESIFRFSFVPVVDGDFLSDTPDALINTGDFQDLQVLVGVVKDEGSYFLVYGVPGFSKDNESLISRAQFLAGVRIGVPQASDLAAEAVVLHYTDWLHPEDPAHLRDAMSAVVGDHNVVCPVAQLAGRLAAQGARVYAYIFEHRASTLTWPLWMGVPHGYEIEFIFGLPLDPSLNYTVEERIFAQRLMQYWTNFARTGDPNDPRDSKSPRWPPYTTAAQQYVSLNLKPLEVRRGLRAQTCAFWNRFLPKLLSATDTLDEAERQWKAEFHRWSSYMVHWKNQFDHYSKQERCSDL
Put plainly: in vitro inhibition of acetylcholinesterase assay (modified Ellman). Type of experiment: biochemical, Male Wistar rat (corpora striata homogenate). The protocol:
In this assay, a modification of a test described by G. L. Ellman, et al., Biochemical Pharmacology, 7, 88 (1961), the following reagents are prepared and employed:
1.0.05M Phosphate Buffer (pH 7.2)
A solution of monobasic sodium phosphate monohydrate (6.85 g) in distilled water (100 ml) is added to a solution of dibasic sodium phosphate heptahydrate (13.4 g) and distilled water (100 ml) until a pH of 7.2 was attained. The solution was diluted 1 to 10 with distilled water.
The 0.05M Phosphate Buffer (pH 7.2) was added to acetylthiocholine (198 mg) to a total volume of 100 ml, i.e., a quantity sufficient (gs) to 100 ml.
3. 5,5-Dithiobisnitrobenzoic acid in Buffer
The 0.05M Phosphate Buffer (pH 7.2) was added to 5,5-dithiobisnitrobenzoic acid to a total volume of 100 ml, i.e., a quantity sufficient (gs) to 100 ml.
4. Stock Solution of Drug
A 2 millimolar stock solution of the test drug is prepared in a quantity sufficient of either acetic acid or dimethyl sulfoxide to volume with 5,5-Dithiobisnitrobenzoic Acid in Buffer. Stock Solution of Drug is serially diluted (1:10) so that the final cuvette concentration is 10^-4 molar.
Male Wistar rates are decapitated, brains rapidly removed, corpora striata dissected free, weighed and homogenized in 19 volumes (approximately 7 mg protein/ml) of 0.05M phosphate Buffer (pH 7.2) using a Potter-Elvehjem homogenizer. A 25 μl aliquot of this suspension is added to 1 ml of the vehicle or various concentrations of the test drug and preincubated for 10 minutes at 37° C. Enzyme activity is measured with a Beckman DU-50 spectrophotometer with the following software and instrument settings:
1. Kinetics Soft-Pac™ Module #598273;
6. Cuvettes--2 ml cuvettes using auto 6-sampler;
7. Blank--1 for each substrate concentration;
8. Interval time--15 seconds (15 or 30 seconds for kinetics);
9. Total time--5 minutes (5 or 10 minutes for kinetics);
14 12. Slope--increasing;
13. Results--yes (gives slope); and
Reagents are added to the blank and sample cuvettes as follows:
1. Blank: 0.8 ml 5,5-Dithiobisnitrobenzoic Acid 0.8 ml Substrate in Buffer
2. Control: 0.8 ml 5,5-Dithiobisnitrobenzoic Acid/Enzyme 0.8 ml Substrate in Buffer
3. Drug: 0.8 ml 5,5-Dithiobisnitrobenzoic Acid/Drug/Enzyme 0.8 ml Substrate in Buffer
Blank values are determined for each run to control for non-enzymatic hydrolysis of substrate and these values are automatically subtracted by the Kindata program available on kinetics soft-pac module. This program also calculates the rate of absorbance change for each cuvette.
Substrate concentration is 10 millimolar diluted 1:2 in assay yielding final concentration of 5 millimolar. 5,5-Dithiobisnitrobenzoic acid concentration is 0.5 millimolar yielding 0.25 millimolar final concentration. [formula]
IC50 values are calculated from log-probit analysis

Turning to `CNC(=O)Oc1cccc(C2CCCN2Cc2cccnc2)c1` (stereo not shown) [3-[1-(3-Pyridinylmethyl)-2-pyrrolidinyl]phenyl methylcarbamate], the “Inhibition of Acetylcholinesterase Activity Percent Inhibition @ 1 hr” value in the experiment on acetylcholinesterase [1] (10 mg/kg per os, forebrain) came to 51%.

As for `CNC(=O)Oc1cccc(C2CCC(=O)N2Cc2ccncc2)c1` (stereo not shown) [3-[1-((4-Pyridinyl)methyl)-5-oxo-2-pyrrolidinyl]phenyl methylcarbamate hemifumarate], the midpoint of inhibition on acetylcholinesterase [2], the IC50, lay at 1440 nM.

At acetylcholinesterase [2], `O=C(Oc1cccc(C2CCCN2Cc2ccncc2)c1)N1CCc2ccccc2C1` (stereo not shown) [3-[1-(4-Pyridinylmethyl)-2-pyrrolidinyl]phenyl 3,4-dihydro-2(1H)-isoquinoline carbamate hemifumarate] came in with an IC50 of 568 nM.

Turning to `CNC(=O)Oc1cccc(C2CCCN2Cc2ccncc2)c1` (stereo not shown) [3-[1-(4-Pyridinylmethyl)-2-pyrrolidinyl]phenyl methylcarbamate], the “Inhibition of Acetylcholinesterase Activity Percent Inhibition @ 1 hr” value in the experiment with acetylcholinesterase [1] (10 mg/kg per os, striatum) is reported as 80%. For the same compound, on acetylcholinesterase [2], the IC50 turned out to be 24.4 nM.

In the case of `CNC(=O)Oc1cccc(C2CCC(=O)N2CCN2CCOCC2)c1` (stereo not shown) [3-{1-[2-(4-Morpholinyl)ethyl]-5-oxo-2-pyrrolidinyl}phenyl methylcarbamate], the IC50 against acetylcholinesterase [2] was found to be 18700 nM.

For `CNC(=O)Oc1ccc2c(c1)[C@]1(C)CCN(C)[C@@H]1N2C` [physostigmine, reference compound], in the experiment on acetylcholinesterase [1] (0.3 mg/kg intraperitoneal, forebrain), the “Inhibition of Acetylcholinesterase Activity Percent Inhibition @ 1 hr” value came out at 27%.

In turn, `CNC(=O)Oc1cccc(C2CCCN2CCN2CCOCC2)c1` (stereo not shown) [3-{1-[2-(4-Morpholinyl)ethyl]-2-pyrrolidinyl}phenyl methylcarbamate bis-fumarate] displayed an IC50 at acetylcholinesterase [2] of 529 nM.

Take `CCN1CCCC1c1cccc(OC(=O)NC)c1` (stereo not shown) [3-[1-Ethyl-2-pyrrolidinyl]phenyl methylcarbamate]: the “Inhibition of Acetylcholinesterase Activity Percent Inhibition @ 1 hr” value in the experiment with acetylcholinesterase [1] (1 mg/kg per os, forebrain) is recorded as 73%.

Regarding `CNC(=O)Oc1cccc(C2CCCN2CCc2ccccc2)c1` (stereo not shown) [3-[1-(2-Phenylethyl)-2-pyrrolidinyl]phenyl methylcarbamate], the “Inhibition of Acetylcholinesterase Activity Percent Inhibition @ 1 hr” value with acetylcholinesterase [1] (10 mg/kg per os, forebrain) is 25%.

(Values after patent publication US5405845A, “(Pyrrolidinyl)phenyl carbamate derivatives and use” (priority 1994, dated 1995).)
